Assay results reported in PubChem BioAssay (NCI).
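Test compounds were applied to cells in 96-well plates for 48 hours at 5 doses. TGI: concentration producing complete growth inhibition.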

What was measured:
Assay in all cases: inhibition of tumour cell growth, NCI panel, 48 h
T-47D breast = system: T-47D breast
M14 melanoma = system: M14 melanoma
HCT-116 colon = system: HCT-116 colon
NCI-H226 lung = system: NCI-H226 lung
MDA-MB-435 = system: MDA-MB-435
K-562 leukemia = system: K-562 leukemia
BT-549 breast = system: BT-549 breast
NCI/ADR-RES ovarian = system: NCI/ADR-RES ovarian
A549 NSCLC = system: A549 NSCLC
CAKI-1 renal = system: CAKI-1 renal

CCOC(=O)Cc1cnc(NC(NC(=O)CC)(C(F)(F)F)C(F)(F)F)s1
TGI (T-47D breast): > 100 µM
TGI (M14 melanoma): > 100 µM
TGI (HCT-116 colon): > 100 µM
TGI (NCI-H226 lung): > 100 µM
TGI (MDA-MB-435): > 100 µM
TGI (K-562 leukemia): > 100 µM
TGI (BT-549 breast): > 100 µM

O=C1CSC2=NC3=C(CSC/C3=C\c3ccccc3)C(c3ccccc3)N12 (stereo unspecified)
TGI (T-47D breast): > 100 µM
TGI (M14 melanoma): > 100 µM
TGI (HCT-116 colon): > 100 µM
TGI (NCI-H226 lung): > 100 µM
TGI (NCI/ADR-RES ovarian): > 100 µM
TGI (A549 NSCLC): > 100 µM
TGI (MDA-MB-435): > 100 µM
TGI (K-562 leukemia): > 100 µM

CNC(=O)OC(COC)CN1CCN(c2ccccc2C)CC1 (stereo unspecified)
TGI (T-47D breast): > 10 µM
TGI (M14 melanoma): > 10 µM
TGI (HCT-116 colon): > 10 µM
TGI (NCI-H226 lung): > 10 µM
TGI (NCI/ADR-RES ovarian): > 10 µM
TGI (A549 NSCLC): > 10 µM
TGI (CAKI-1 renal): > 10 µM
TGI (MDA-MB-435): > 10 µM
TGI (K-562 leukemia): > 10 µM

CC(=O)C(=[N+]=[N-])C(=O)N(C)CCC#N
TGI (T-47D breast): > 10 µM
TGI (M14 melanoma): > 10 µM
TGI (HCT-116 colon): > 10 µM
TGI (NCI-H226 lung): > 10 µM
TGI (A549 NSCLC): > 10 µM
TGI (MDA-MB-435): > 10 µM
TGI (K-562 leukemia): > 10 µM
TGI (BT-549 breast): > 10 µM

O=C1CCCCC/C1=C\c1ccccc1
TGI (T-47D breast): > 100 µM
TGI (M14 melanoma): > 100 µM
TGI (HCT-116 colon): > 100 µM
TGI (NCI-H226 lung): > 100 µM
TGI (A549 NSCLC): > 100 µM
TGI (CAKI-1 renal): > 100 µM
TGI (MDA-MB-435): > 100 µM
TGI (K-562 leukemia): > 100 µM
TGI (BT-549 breast): > 100 µM

O=C(O)c1ccc(Nc2nc3cc(C(F)(F)F)ccc3n3cccc23)cc1
TGI (T-47D breast): 70.4 µM
TGI (M14 melanoma): 80.5 µM
TGI (HCT-116 colon): 68.2 µM
TGI (NCI/ADR-RES ovarian): > 100 µM
TGI (A549 NSCLC): > 100 µM
TGI (CAKI-1 renal): > 100 µM
TGI (MDA-MB-435): > 100 µM
TGI (K-562 leukemia): 67.7 µM
TGI (BT-549 breast): > 100 µM

O=S(=O)(O)c1ccc2c(N=Nc3ccc(Cl)cc3)c(O)ccc2c1
TGI (T-47D breast): > 100 µM
TGI (M14 melanoma): > 100 µM
TGI (HCT-116 colon): > 100 µM
TGI (NCI/ADR-RES ovarian): > 100 µM
TGI (A549 NSCLC): > 100 µM
TGI (CAKI-1 renal): > 100 µM
TGI (MDA-MB-435): > 100 µM
TGI (K-562 leukemia): > 100 µM
TGI (BT-549 breast): > 100 µM

CC1(C)OC[C@@H](O)[C@H](Br)CO1
TGI (T-47D breast): > 100 µM
TGI (M14 melanoma): > 100 µM
TGI (HCT-116 colon): > 100 µM
TGI (NCI-H226 lung): > 100 µM
TGI (CAKI-1 renal): > 100 µM
TGI (MDA-MB-435): > 100 µM
TGI (K-562 leukemia): > 100 µM
TGI (BT-549 breast): > 100 µM

O=C(OC/C=C1C=C(OC(=O)c2ccccc2)/C(=N/N(C(=O)c2ccccc2)c2ccccc2)O\1)c1ccccc1
TGI (M14 melanoma): 18.7 µM
TGI (HCT-116 colon): 18.3 µM
TGI (NCI-H226 lung): 54.1 µM
TGI (A549 NSCLC): 22.6 µM
TGI (CAKI-1 renal): 13.7 µM
TGI (K-562 leukemia): 11.8 µM

CN(C(=O)Cc1cc(Cl)c(Cl)cc1NC(=O)CN)[C@H]1CCCC[C@@H]1N1CCCC1
TGI (T-47D breast): 98.4 µM
TGI (M14 melanoma): 33.5 µM
TGI (HCT-116 colon): > 100 µM
TGI (NCI/ADR-RES ovarian): > 100 µM
TGI (A549 NSCLC): > 100 µM
TGI (CAKI-1 renal): > 100 µM
TGI (MDA-MB-435): 32.6 µM
TGI (K-562 leukemia): 57.5 µM
TGI (BT-549 breast): > 100 µM

NC1Cc2ccccc2OC1=O (stereo unspecified)
TGI (T-47D breast): > 100 µM
TGI (M14 melanoma): > 100 µM
TGI (NCI-H226 lung): > 100 µM
TGI (NCI/ADR-RES ovarian): > 100 µM
TGI (A549 NSCLC): > 100 µM
TGI (CAKI-1 renal): > 100 µM
TGI (MDA-MB-435): > 100 µM
TGI (K-562 leukemia): > 100 µM
TGI (BT-549 breast): > 100 µM

Cc1nc2[nH]ncn2c(=O)c1CCO
TGI (T-47D breast): > 10 µM
TGI (M14 melanoma): > 10 µM
TGI (HCT-116 colon): > 10 µM
TGI (NCI-H226 lung): > 10 µM
TGI (NCI/ADR-RES ovarian): > 10 µM
TGI (A549 NSCLC): > 10 µM
TGI (CAKI-1 renal): > 10 µM
TGI (MDA-MB-435): > 10 µM
TGI (K-562 leukemia): > 10 µM

COc1ccc(C2C3CCCC(C3=O)C(c3ccc(OC)cc3)N2N=O)cc1 (stereo unspecified)
TGI (HCT-116 colon): > 74.9 µM
TGI (NCI-H226 lung): 61.6 µM
TGI (NCI/ADR-RES ovarian): > 87.2 µM
TGI (A549 NSCLC): > 88.2 µM
TGI (CAKI-1 renal): > 100 µM
TGI (K-562 leukemia): > 66 µM

NC(=Nc1cccc(Cl)c1)c1ccccc1N
TGI (M14 melanoma): > 100 µM
TGI (HCT-116 colon): > 100 µM
TGI (NCI-H226 lung): > 100 µM
TGI (NCI/ADR-RES ovarian): > 100 µM
TGI (A549 NSCLC): > 100 µM
TGI (CAKI-1 renal): > 100 µM
TGI (MDA-MB-435): > 100 µM
TGI (K-562 leukemia): > 100 µM
TGI (BT-549 breast): > 100 µM

OC12c3ccccc3C3CCC4(OCCO4)C3C1c1ccccc12 (stereo unspecified)
TGI (M14 melanoma): > 100 µM
TGI (HCT-116 colon): > 100 µM
TGI (NCI-H226 lung): > 100 µM
TGI (A549 NSCLC): > 100 µM
TGI (CAKI-1 renal): > 100 µM
TGI (K-562 leukemia): > 100 µM

COc1ccc2[nH]c3c(C)cc([N+](=O)[O-])c(C)c3c2c1
TGI (M14 melanoma): 53.2 µM
TGI (HCT-116 colon): 58.7 µM
TGI (NCI-H226 lung): > 100 µM
TGI (A549 NSCLC): 75.3 µM
TGI (CAKI-1 renal): > 100 µM
TGI (K-562 leukemia): 44.3 µM

CCOC(=O)c1c(N2CCCC2)ncn(C)c1=S
TGI (T-47D breast): > 100 µM
TGI (M14 melanoma): > 100 µM
TGI (HCT-116 colon): > 100 µM
TGI (NCI-H226 lung): > 100 µM
TGI (NCI/ADR-RES ovarian): > 100 µM
TGI (A549 NSCLC): > 100 µM
TGI (CAKI-1 renal): > 100 µM
TGI (MDA-MB-435): > 100 µM
TGI (K-562 leukemia): > 100 µM

CCCC1(CCC)c2cc(/C=N\O)ccc2-c2ccc(-c3ccc(C(C)(C)C)cc3)cc21
TGI (T-47D breast): > 100 µM
TGI (M14 melanoma): > 100 µM
TGI (HCT-116 colon): 54.8 µM
TGI (NCI/ADR-RES ovarian): > 100 µM
TGI (A549 NSCLC): > 100 µM
TGI (CAKI-1 renal): > 100 µM
TGI (K-562 leukemia): > 100 µM

COc1ccc(N2C(=O)C3c4[nH]c5ccc(F)cc5c4C4CCC(C(C)(C)C)CC4C3C2=O)cc1 (stereo unspecified)
TGI (T-47D breast): > 10 µM
TGI (M14 melanoma): > 10 µM
TGI (HCT-116 colon): > 10 µM
TGI (NCI-H226 lung): > 10 µM
TGI (NCI/ADR-RES ovarian): > 10 µM
TGI (A549 NSCLC): > 10 µM
TGI (CAKI-1 renal): > 10 µM
TGI (MDA-MB-435): > 10 µM

CCn1c(=O)c2nc(SC)sc2n(-c2ccccc2)c1=O
TGI (T-47D breast): > 100 µM
TGI (M14 melanoma): > 100 µM
TGI (HCT-116 colon): > 100 µM
TGI (NCI-H226 lung): > 100 µM
TGI (NCI/ADR-RES ovarian): > 100 µM
TGI (A549 NSCLC): > 100 µM
TGI (MDA-MB-435): > 100 µM
TGI (K-562 leukemia): > 100 µM

c1ccc2c(c1)ccn1ccc3c4ccccc4nc-3c21
TGI (T-47D breast): 3.51 µM
TGI (M14 melanoma): 1.51 µM
TGI (NCI-H226 lung): 1.81 µM
TGI (NCI/ADR-RES ovarian): 2.17 µM
TGI (A549 NSCLC): 1.57 µM
TGI (CAKI-1 renal): 2.09 µM
TGI (MDA-MB-435): 1.65 µM
TGI (K-562 leukemia): 0.567 µM
TGI (BT-549 breast): 3.82 µM

COc1ccc2nc3n(c2c1)C(=O)c1ccccc1-3
TGI (M14 melanoma): > 100 µM
TGI (HCT-116 colon): > 100 µM
TGI (NCI-H226 lung): > 100 µM
TGI (NCI/ADR-RES ovarian): > 100 µM
TGI (A549 NSCLC): > 100 µM
TGI (CAKI-1 renal): > 100 µM
TGI (K-562 leukemia): > 100 µM

COc1ccc(C(=O)N/N=C/c2c(C)n(C)n(-c3ccccc3)c2=O)cc1
TGI (M14 melanoma): > 100 µM
TGI (HCT-116 colon): > 100 µM
TGI (NCI-H226 lung): > 100 µM
TGI (A549 NSCLC): > 100 µM
TGI (K-562 leukemia): > 100 µM

CCOC(=O)C(C)c1nc2ccc(C(F)(F)F)cc2[nH]c1=O (stereo unspecified)
TGI (T-47D breast): 69.9 µM
TGI (M14 melanoma): > 100 µM
TGI (HCT-116 colon): > 100 µM
TGI (NCI-H226 lung): > 100 µM
TGI (NCI/ADR-RES ovarian): > 100 µM
TGI (A549 NSCLC): > 100 µM
TGI (MDA-MB-435): > 100 µM
TGI (K-562 leukemia): > 100 µM
TGI (BT-549 breast): > 100 µM

CC(CN(C)C)C(=O)c1ccccc1 (stereo unspecified)
TGI (M14 melanoma): > 55 µM
TGI (HCT-116 colon): > 53 µM
TGI (NCI-H226 lung): > 100 µM
TGI (A549 NSCLC): > 100 µM
TGI (CAKI-1 renal): 15.6 µM
TGI (K-562 leukemia): > 100 µM

CCn1c2c(c3ccccc31)C(c1ccccc1)CC1C(=O)N(c3ccccc3)C(=O)C21 (stereo unspecified)
TGI (M14 melanoma): > 100 µM
TGI (HCT-116 colon): > 100 µM
TGI (NCI-H226 lung): > 100 µM
TGI (A549 NSCLC): > 100 µM
TGI (CAKI-1 renal): > 100 µM
TGI (K-562 leukemia): > 100 µM
